From patent US8952024B2, “Herbicidal pyrimidone derivatives” (E I du Pont de Nemours and Company, priority 2009, dated 2015)

Columns and labels:
Assay type in all cases: in vivo
[1] = tested on: wheat (Triticum aestivum); experiment: Test B pre-/postemergence plant response; settings: Postemergence
Summary of the method: (§1)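 Ratings reflect visual comparison with untreated controls 13 to 15 days after application, from 0 (no effect) to 100 (complete control). Application was preemergence to seeded loam/sand soil or postemergence to 1- to 4-leaf plants, with compound in a non-phytotoxic, surfactant-containing solvent.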

wild oat (Avena fatua) = experiment: Test B pre-/postemergence plant response; settings: Postemergence
Summary of the method: as §1

soybean (Glycine max) = experiment: Test B pre-/postemergence plant response; settings: Postemergence
Summary of the method: as §1

[2] = tested on: green foxtail (Setaria viridis); experiment: Test B pre-/postemergence plant response; settings: Postemergence
Summary of the method: as §1

[3] = tested on: cocklebur (Xanthium strumarium); experiment: Test B pre-/postemergence plant response; settings: Postemergence
Summary of the method: as §1

[4] = tested on: bermudagrass (Cynodon dactylon); experiment: Test B pre-/postemergence plant response; settings: for Plant response rating, Bermudagrass: Postemergence
Summary of the method: as §1

[5] = tested on: blackgrass (Alopecurus myosuroides); experiment: Test B pre-/postemergence plant response; settings: for Plant response rating, Blackgrass: Postemergence
Summary of the method: as §1

[6] = tested on: johnsongrass (Sorghum halepense); experiment: Test B pre-/postemergence plant response; settings: Postemergence
Summary of the method: as §1

kochia (Kochia scoparia) = experiment: Test B pre-/postemergence plant response; settings: Postemergence
Summary of the method: as §1

[7] = tested on: ragweed (common ragweed, Ambrosia elatior); experiment: Test B pre-/postemergence plant response; settings: Postemergence
Summary of the method: as §1

[8] = tested on: morningglory (Ipomoea coccinea); experiment: Test B pre-/postemergence plant response; settings: Postemergence
Summary of the method: as §1

[9] = tested on: downy bromegrass (Bromus tectorum); experiment: Test B pre-/postemergence plant response; settings: for Plant response rating, Bromegrass, Downy: Postemergence
Summary of the method: as §1

[10] = tested on: velvetleaf (Abutilon theophrasti); experiment: Test B pre-/postemergence plant response; settings: Postemergence
Summary of the method: as §1

[11] = tested on: giant foxtail (Setaria faberii); experiment: Test B pre-/postemergence plant response; settings: Postemergence
Summary of the method: as §1

[12] = tested on: yellow nutsedge (Cyperus esculentus); experiment: Test B pre-/postemergence plant response; settings: Postemergence
Summary of the method: as §1

[13] = tested on: canarygrass (Phalaris minor); experiment: Test B postemergence plant response; settings: Postemergence
Summary of the method: (§2)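 Visual ratings from 0 (no effect) to 100 (complete control), made against controls 13–15 days after treatment, kept in a greenhouse. Compounds were applied postemergence to potted plants at the 1- to 4-leaf stage (2–18 cm).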

[14] = tested on: windgrass (Apera spica-venti); experiment: Test B postemergence plant response; settings: Postemergence
Summary of the method: as §2

[15] = tested on: chickweed (Stellaria media); experiment: Test B postemergence plant response; settings: Postemergence
Summary of the method: as §2

[16] = 31 g ai/ha, 0 to 100 scale (0 no effect, 100 complete control)
[17] = 125 g ai/ha, scale 0 to 100 (0 no effect, 100 complete control)
[18] = 62 g ai/ha, postemergence, 0 is no effect, 100 is complete control, 13 to 15 days

## O=C1CCCC(O)=C1C(=O)c1cnc(-c2ccccc2)n(C2CC[S+]([O-])CC2)c1=O (mixture of isomers) [Compound 169, 5-[(2-hydroxy-6-oxo-1-cyclohexen-1-yl)carbonyl]-2-phenyl-3-(trans/cis-tetrahydro-1-oxido-2H-thiopyran-4-yl)-4(3H)-pyrimidinone]
[1]; 16 g ai/ha, 0 to 100 scale
  Plant response rating, Wheat: 0
[1]; [16]
  Plant response rating, Wheat: 0
[1]; [17]
  Plant response rating, Wheat: 5
Wild oat (Avena fatua); 16 g ai/ha, 0 to 100 scale
  Plant response rating, Oat, Wild: 0
Wild oat (Avena fatua); [16]
  Plant response rating, Oat, Wild: 0
Wild oat (Avena fatua); [17]
  Plant response rating, Oat, Wild: 85
Soybean (Glycine max); 16 g ai/ha, 0 to 100 scale
  Plant response rating, Soybean: 55
Soybean (Glycine max); [16]
  Plant response rating, Soybean: 90
Soybean (Glycine max); [17]
  Plant response rating, Soybean: 95
[2]; 16 g ai/ha, 0 to 100 scale
  Plant response rating, Foxtail, Green: 45
[2]; [16]
  Plant response rating, Foxtail, Green: 60
[2]; [17]
  Plant response rating, Foxtail, Green: 95
[3]; 16 g ai/ha, 0 to 100 scale
  Plant response rating, Cocklebur: 100
[3]; [16]
  Plant response rating, Cocklebur: 100
[3]; [17]
  Plant response rating, Cocklebur: 100
[4]; 16 g ai/ha, 0 to 100 scale
  Plant response rating, Bermudagrass: 70
[4]; [18]
  Bermudagrass plant response rating (0 to 100 scale): 75
[4]; [16]
  Plant response rating, Bermudagrass: 70
[4]; [17]
  Plant response rating, Bermudagrass: 100
[5]; 16 g ai/ha, 0 to 100 scale
  Plant response rating, Blackgrass: 0
[5]; [18]
  Blackgrass plant response rating (0 to 100 scale): 5
[5]; [16]
  Plant response rating, Blackgrass: 5
[5]; [17]
  Plant response rating, Blackgrass: 10
[6]; 16 g ai/ha, 0 to 100 scale
  Plant response rating, Johnsongrass: 40
[6]; [16]
  Plant response rating, Johnsongrass: 60
[6]; [17]
  Plant response rating, Johnsongrass: 65
Kochia (Kochia scoparia); 16 g ai/ha, 0 to 100 scale
  Plant response rating, Kochia: 100
Kochia (Kochia scoparia); [16]
  Plant response rating, Kochia: 100
Kochia (Kochia scoparia); [17]
  Plant response rating, Kochia: 100
[7]; 16 g ai/ha, 0 to 100 scale
  Plant response rating, Ragweed: 98
[7]; [16]
  Plant response rating, Ragweed: 100
[7]; [17]
  Plant response rating, Ragweed: 100
[8]; 16 g ai/ha, 0 to 100 scale
  Plant response rating, Morningglory: 95
[8]; [16]
  Plant response rating, Morningglory: 95
[8]; [17]
  Plant response rating, Morningglory: 100
[9]; 16 g ai/ha, 0 to 100 scale
  Plant response rating, Bromegrass, Downy: 0
[9]; [18]
  Bromegrass, Downy plant response rating (0 to 100 scale): 40
[9]; [16]
  Plant response rating, Bromegrass, Downy: 10
[9]; [17]
  Plant response rating, Bromegrass, Downy: 90
[10]; 16 g ai/ha, 0 to 100 scale
  Plant response rating, Velvetleaf: 75
[10]; [16]
  Plant response rating, Velvetleaf: 100
[10]; [17]
  Plant response rating, Velvetleaf: 100
[11]; 16 g ai/ha, 0 to 100 scale
  Plant response rating, Foxtail, Giant: 75
[11]; [16]
  Plant response rating, Foxtail, Giant: 95
[11]; [17]
  Plant response rating, Foxtail, Giant: 100
[12]; 16 g ai/ha, 0 to 100 scale
  Plant response rating, Nutsedge, Yellow: 0
[12]; [16]
  Plant response rating, Nutsedge, Yellow: 0
[12]; [17]
  Plant response rating, Nutsedge, Yellow: 55
[13]; 16 g ai/ha, 0 to 100 scale
  Plant response rating, Canarygrass: 5
[13]; [16]
  Plant response rating, Canarygrass: 40
[13]; [17]
  Plant response rating, Canarygrass: 80
[14]; 16 g ai/ha, 0 to 100 scale
  Plant response rating, Windgrass: 5
[14]; [16]
  Plant response rating, Windgrass: 15
[14]; [17]
  Plant response rating, Windgrass: 55
[15]; 16 g ai/ha, 0 to 100 scale
  Plant response rating, Chickweed: 90
[15]; [16]
  Plant response rating, Chickweed: 100
[15]; [17]
  Plant response rating, Chickweed: 100
